Measurements published in ChEMBL document CHEMBL1649439, “Prevalence of aac(6')-Ib-cr encoding a ciprofloxacin-modifying enzyme among Enterobacteriaceae blood isolates in Korea” (2009).
In brackets after ≈: the same amount, converted by molar mass.

Assays:
Format in all cases: functional
Klebsiella pneumoniae [1] = test: Antimicrobial activity against Klebsiella pneumoniae isolate 202 expressing aac(6')-Ib-cr gene
Klebsiella pneumoniae [2] = test: Antimicrobial activity against Klebsiella pneumoniae isolate 132 expressing aac(6')-Ib-cr gene
Escherichia coli [3] = test: Antimicrobial activity against Escherichia coli isolate 17 expressing aac(6')-Ib-cr gene
Klebsiella pneumoniae [4] = test: Antimicrobial activity against Klebsiella pneumoniae isolate 135 expressing aac(6')-Ib-cr gene
Klebsiella pneumoniae [5] = test: Antimicrobial activity against Klebsiella pneumoniae isolate 135 transconjugant expressing aac(6')-Ib-cr gene
Klebsiella pneumoniae [6] = test: Antimicrobial activity against Klebsiella pneumoniae isolate 202 transconjugant expressing aac(6')-Ib-cr gene
Klebsiella pneumoniae [7] = test: Antimicrobial activity against Klebsiella pneumoniae isolate 132 transconjugant expressing aac(6')-Ib-cr gene
Enterobacter cloacae [8] = test: Antimicrobial activity against Enterobacter cloacae isolate 101 expressing aac(6')-Ib-cr gene
Enterobacter cloacae [9] = test: Antimicrobial activity against Enterobacter cloacae isolate 153 transconjugant expressing aac(6')-Ib-cr gene
Escherichia coli [10] = test: Antimicrobial activity against Escherichia coli isolate 48 transconjugant expressing aac(6')-Ib-cr gene
Escherichia coli [11] = test: Antimicrobial activity against Escherichia coli isolate 17 transconjugant expressing aac(6')-Ib-cr gene
Escherichia coli [12] = test: Antimicrobial activity against Escherichia coli isolate 48 expressing aac(6')-Ib-cr gene
Escherichia coli [13] = test: Antimicrobial activity against azide-resistant Escherichia coli J53
Enterobacter cloacae [14] = test: Antimicrobial activity against Enterobacter cloacae isolate 153 expressing aac(6')-Ib-cr gene
Enterobacter cloacae [15] = test: Antimicrobial activity against Enterobacter cloacae isolate 101 transconjugant expressing aac(6')-Ib-cr gene
Enterobacter cloacae [16] = test: Antimicrobial activity against Enterobacter cloacae isolate 37 expressing aac(6')-Ib-cr gene
Enterobacter cloacae [17] = test: Antimicrobial activity against Enterobacter cloacae isolate 37 transconjugant expressing aac(6')-Ib-cr gene
Escherichia coli [18] = test: Ratio of MIC for Escherichia coli isolate 48 transconjugant to MIC for azide-resistant Escherichia coli […]
Escherichia coli [19] = test: Ratio of MIC for Escherichia coli isolate 17 transconjugant to MIC for azide-resistant Escherichia coli […]

COc1c(N2C[C@@H]3CCCN[C@@H]3C2)c(F)cc2c(=O)c(C(=O)O)cn(C3CC3)c12 [MOXIFLOXACIN]
MIC (Klebsiella pneumoniae [1]): 16 µg/mL (≈ 39.9 µM)
MIC (Klebsiella pneumoniae [2]): 0.125 µg/mL (≈ 0.311 µM)
MIC (Escherichia coli [3]): > 16 µg/mL
MIC (Klebsiella pneumoniae [4]): > 16 µg/mL
MIC (Klebsiella pneumoniae [5]): 1 µg/mL (≈ 2.49 µM)
MIC (Klebsiella pneumoniae [6]): 0.06 µg/mL (≈ 0.149 µM)
MIC (Klebsiella pneumoniae [7]): 0.06 µg/mL (≈ 0.149 µM)

GENTAMICIN
MIC (Enterobacter cloacae [8]): > 32 µg/mL
MIC (Enterobacter cloacae [9]): > 32 µg/mL
MIC (Klebsiella pneumoniae [1]): > 32 µg/mL
MIC (Escherichia coli [10]): 0.25 µg/mL
MIC (Klebsiella pneumoniae [2]): > 32 µg/mL
MIC (Escherichia coli [3]): > 32 µg/mL
MIC (Escherichia coli [11]): 32 µg/mL
MIC (Escherichia coli [12]): 0.25 µg/mL
MIC (Klebsiella pneumoniae [4]): > 32 µg/mL
MIC (Escherichia coli [13]): 0.25 µg/mL
MIC (Klebsiella pneumoniae [5]): > 32 µg/mL
MIC (Klebsiella pneumoniae [6]): > 32 µg/mL
MIC (Enterobacter cloacae [14]): > 32 µg/mL
MIC (Enterobacter cloacae [15]): 0.25 µg/mL
MIC (Enterobacter cloacae [16]): > 32 µg/mL
MIC (Klebsiella pneumoniae [7]): 32 µg/mL
MIC (Enterobacter cloacae [17]): > 32 µg/mL

NC[C@H]1O[C@H](O[C@H]2[C@H](O)[C@@H](O[C@H]3O[C@H](CO)[C@@H](O)[C@H](N)[C@H]3O)[C@H](N)C[C@@H]2N)[C@H](N)C[C@@H]1O [TOBRAMYCIN]
MIC (Enterobacter cloacae [8]): > 16 µg/mL
MIC (Enterobacter cloacae [9]): > 16 µg/mL
MIC (Klebsiella pneumoniae [1]): > 16 µg/mL
MIC (Escherichia coli [10]): 8 µg/mL (≈ 17.1 µM)
MIC (Klebsiella pneumoniae [2]): > 16 µg/mL
MIC (Escherichia coli [3]): > 16 µg/mL
MIC (Escherichia coli [11]): 16 µg/mL (≈ 34.2 µM)
MIC (Escherichia coli [12]): 16 µg/mL (≈ 34.2 µM)
MIC (Klebsiella pneumoniae [4]): > 16 µg/mL
MIC (Escherichia coli [13]): 0.25 µg/mL (≈ 0.535 µM)
MIC (Klebsiella pneumoniae [5]): > 16 µg/mL
MIC (Klebsiella pneumoniae [6]): > 16 µg/mL
MIC (Enterobacter cloacae [14]): > 16 µg/mL
MIC (Enterobacter cloacae [15]): 2 µg/mL (≈ 4.28 µM)
MIC (Enterobacter cloacae [16]): > 16 µg/mL
MIC (Klebsiella pneumoniae [7]): 16 µg/mL (≈ 34.2 µM)
MIC (Enterobacter cloacae [17]): > 16 µg/mL

O=C(O)c1cn(C2CC2)c2cc(N3CCNCC3)c(F)cc2c1=O [CIPROFLOXACIN]
MIC (Klebsiella pneumoniae [1]): > 16 µg/mL
MIC (Klebsiella pneumoniae [2]): 0.125 µg/mL (≈ 0.377 µM)
MIC (Escherichia coli [3]): > 16 µg/mL
MIC (Escherichia coli [12]): > 16 µg/mL
MIC (Klebsiella pneumoniae [4]): > 16 µg/mL
MIC (Klebsiella pneumoniae [5]): 1 µg/mL (≈ 3.02 µM)
MIC (Klebsiella pneumoniae [6]): 0.03 µg/mL (≈ 0.0905 µM)
MIC (Klebsiella pneumoniae [7]): 0.03 µg/mL (≈ 0.0905 µM)

CCn1cc(C(=O)O)c(=O)c2cc(F)c(N3CCNCC3)cc21 [NORFLOXACIN]
MIC (Enterobacter cloacae [8]): > 16 µg/mL
fold change (FC) (Escherichia coli [18]): 2
MIC (Enterobacter cloacae [9]): 0.25 µg/mL (≈ 0.783 µM)
MIC (Klebsiella pneumoniae [1]): > 16 µg/mL
MIC (Escherichia coli [10]): 0.25 µg/mL (≈ 0.783 µM)
MIC (Klebsiella pneumoniae [2]): 0.5 µg/mL (≈ 1.57 µM)
MIC (Escherichia coli [3]): > 16 µg/mL
MIC (Escherichia coli [11]): 0.25 µg/mL (≈ 0.783 µM)
MIC (Escherichia coli [12]): > 16 µg/mL
MIC (Klebsiella pneumoniae [4]): > 16 µg/mL
MIC (Escherichia coli [13]): 0.06 µg/mL (≈ 0.188 µM)
MIC (Klebsiella pneumoniae [5]): 8 µg/mL (≈ 25.1 µM)
MIC (Klebsiella pneumoniae [6]): 0.125 µg/mL (≈ 0.391 µM)
MIC (Enterobacter cloacae [14]): > 16 µg/mL
fold change (FC) (Escherichia coli [19]): 2
MIC (Enterobacter cloacae [15]): 0.25 µg/mL (≈ 0.783 µM)
MIC (Enterobacter cloacae [16]): > 16 µg/mL
MIC (Klebsiella pneumoniae [7]): 0.125 µg/mL (≈ 0.391 µM)
MIC (Enterobacter cloacae [17]): 0.25 µg/mL (≈ 0.783 µM)

CC(C)(O/N=C(\C(=O)N[C@@H]1C(=O)N2C(C(=O)[O-])=C(C[n+]3ccccc3)CS[C@H]12)c1csc(N)n1)C(=O)O [CEFTAZIDIME]
MIC (Enterobacter cloacae [8]): > 32 µg/mL
MIC (Enterobacter cloacae [9]): 1 µg/mL (≈ 1.83 µM)
MIC (Klebsiella pneumoniae [1]): > 32 µg/mL
MIC (Escherichia coli [10]): > 32 µg/mL
MIC (Klebsiella pneumoniae [2]): 32 µg/mL (≈ 58.5 µM)
MIC (Escherichia coli [3]): 32 µg/mL (≈ 58.5 µM)
MIC (Escherichia coli [11]): 16 µg/mL (≈ 29.3 µM)
MIC (Escherichia coli [12]): > 32 µg/mL
MIC (Klebsiella pneumoniae [4]): > 32 µg/mL
MIC (Escherichia coli [13]): 0.25 µg/mL (≈ 0.457 µM)
MIC (Klebsiella pneumoniae [5]): > 32 µg/mL
MIC (Klebsiella pneumoniae [6]): 1 µg/mL (≈ 1.83 µM)
MIC (Enterobacter cloacae [14]): > 32 µg/mL
MIC (Enterobacter cloacae [15]): 2 µg/mL (≈ 3.66 µM)
MIC (Enterobacter cloacae [16]): 8 µg/mL (≈ 14.6 µM)
MIC (Klebsiella pneumoniae [7]): 16 µg/mL (≈ 29.3 µM)
MIC (Enterobacter cloacae [17]): 2 µg/mL (≈ 3.66 µM)

CCn1cc(C(=O)O)c(=O)c2ccc(C)nc21 [NALIDIXIC ACID]
MIC (Enterobacter cloacae [8]): > 256 µg/mL
MIC (Enterobacter cloacae [9]): 8 µg/mL (≈ 34.4 µM)
MIC (Klebsiella pneumoniae [1]): > 256 µg/mL
MIC (Escherichia coli [10]): 8 µg/mL (≈ 34.4 µM)
MIC (Klebsiella pneumoniae [2]): 8 µg/mL (≈ 34.4 µM)
MIC (Escherichia coli [3]): > 256 µg/mL
MIC (Escherichia coli [11]): 8 µg/mL (≈ 34.4 µM)
MIC (Escherichia coli [12]): > 256 µg/mL
MIC (Klebsiella pneumoniae [4]): > 256 µg/mL
MIC (Escherichia coli [13]): 8 µg/mL (≈ 34.4 µM)
MIC (Klebsiella pneumoniae [5]): 32 µg/mL (≈ 138 µM)
MIC (Klebsiella pneumoniae [6]): 8 µg/mL (≈ 34.4 µM)
MIC (Enterobacter cloacae [14]): > 256 µg/mL
MIC (Enterobacter cloacae [15]): 8 µg/mL (≈ 34.4 µM)
MIC (Enterobacter cloacae [16]): > 256 µg/mL
MIC (Klebsiella pneumoniae [7]): 8 µg/mL (≈ 34.4 µM)
MIC (Enterobacter cloacae [17]): 8 µg/mL (≈ 34.4 µM)

CO/N=C(\C(=O)N[C@@H]1C(=O)N2C(C(=O)O)=C(COC(C)=O)CS[C@H]12)c1csc(N)n1 [CEFOTAXIME]
MIC (Enterobacter cloacae [8]): 256 µg/mL (≈ 562 µM)
MIC (Enterobacter cloacae [9]): 32 µg/mL (≈ 70.3 µM)
MIC (Klebsiella pneumoniae [1]): > 256 µg/mL
MIC (Escherichia coli [10]): > 256 µg/mL
MIC (Klebsiella pneumoniae [2]): > 256 µg/mL
MIC (Escherichia coli [3]): 256 µg/mL (≈ 562 µM)
MIC (Escherichia coli [11]): 256 µg/mL (≈ 562 µM)
MIC (Escherichia coli [12]): > 256 µg/mL
MIC (Klebsiella pneumoniae [4]): 256 µg/mL (≈ 562 µM)
MIC (Escherichia coli [13]): 0.06 µg/mL (≈ 0.132 µM)
MIC (Klebsiella pneumoniae [5]): 256 µg/mL (≈ 562 µM)
MIC (Klebsiella pneumoniae [6]): 16 µg/mL (≈ 35.1 µM)
MIC (Enterobacter cloacae [14]): 256 µg/mL (≈ 562 µM)
MIC (Enterobacter cloacae [15]): 32 µg/mL (≈ 70.3 µM)
MIC (Enterobacter cloacae [16]): 128 µg/mL (≈ 281 µM)
MIC (Klebsiella pneumoniae [7]): > 256 µg/mL
MIC (Enterobacter cloacae [17]): 64 µg/mL (≈ 141 µM)
